Experimental data published in US12617783B2, “Heterocyclic GLP-1R agonists” (BIOMEA FUSION, INC., priority 2024, dated 2026).
Where two headings read alike, the source gives them in different places.

Biological target: T1, human GLP-1R (Homo sapiens, UniProt P43220)
T1 construct: host or cells: HEK293
Assay: GLP-1R cAMP assay (Example B1a, HTRF, 30 min at room temperature)
Type: cell-based
In short: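 Competitive HTRF read-out of cAMP after 30 min room-temperature stimulation, BETP absent, of human GLP-1R-HEK293 cells (1,000/well) in HEPES buffer with 500 μM IBMX and 0.1% BSA. Activation normalised to GLP-1(7-37) positive control. EC50 from 4-parameter non-linear regression.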

[1] = cAMP accumulation in HEK293 expressing human GLP-1R, no BETP, 30 min room temperature (Method B1a, compounds ID 1-609), Table 1, read-out: EC50

T1 sequence (P43220 24-463): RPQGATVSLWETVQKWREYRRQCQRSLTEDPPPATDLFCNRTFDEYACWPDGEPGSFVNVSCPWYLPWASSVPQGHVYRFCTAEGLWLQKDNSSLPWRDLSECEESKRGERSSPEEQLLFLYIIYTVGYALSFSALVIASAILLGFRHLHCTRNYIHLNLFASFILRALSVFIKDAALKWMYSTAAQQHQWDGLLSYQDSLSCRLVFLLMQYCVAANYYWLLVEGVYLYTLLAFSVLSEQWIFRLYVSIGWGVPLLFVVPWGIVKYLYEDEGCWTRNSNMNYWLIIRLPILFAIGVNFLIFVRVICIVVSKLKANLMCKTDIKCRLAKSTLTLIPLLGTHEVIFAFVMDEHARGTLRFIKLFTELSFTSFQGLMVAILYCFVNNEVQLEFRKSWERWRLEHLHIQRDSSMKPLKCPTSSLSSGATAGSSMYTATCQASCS

SMILES	EC50 [1] [µM]	other results
Cc1cc(-n2nc3c(c2-n2ccn(-c4ccc5c(cnn5C)c4F)c2=O)[C@@H]2CC[C@H](C3)N2C(=O)c2cc3cc(C4CCOC4(C)C)ccc3n2[C@@]2(c3noc(=O)[nH]3)C[C@@H]2C)cc(C)c1F (stereo partly drawn) [Compound 413, 3-[(1S,2S)-1-[5-(2,2-dimethyltetrahydrofuran-3-yl)-2-[(1S,8R)-4-(4-fluoro-3,5-dimethyl-phenyl)-3-[3-(4-fluoro-1-methyl-indazol-5-yl)-2-oxo-imidazol-1-yl]-4,5,11-triazatricyclo[6.2.1.02,6]undeca-2,5-diene-11-carbonyl]indol-1-yl]-2-methyl-cyclopropyl]-4H-1,2,4-oxadiazol-5-one]	1.77	–
Cc1cc(-n2nc3c(c2-n2ccn(-c4ccc5c(cnn5C)c4F)c2=O)[C@H]2CC[C@@H](C3)N2C(=O)c2cc3cc([C@H]4CCOC5(CC5)C4)ccc3n2[C@]2(c3noc(=O)[nH]3)C[C@@H]2C)cc(C)c1F [Compound 531, 3-[(1R,2S)-1-[2-[(1R,8S)-4-(4-fluoro-3,5-dimethyl-phenyl)-3-[3-(4-fluoro-1-methyl-indazol-5-yl)-2-oxo-imidazol-1-yl]-4,5,11-triazatricyclo[6.2.1.02,6]undeca-2,5-diene-11-carbonyl]-5-[(7S)-4-oxaspiro[2.5]octan-7-yl]indol-1-yl]-2-methyl-cyclopropyl]-4H-1,2,4-oxadiazol-5-one]	≥ 10	–
Cc1cc(-n2nc3c(c2-c2ncn(-c4ccc5c(cnn5C)c4F)c2C)[C@H](C)N(C(=O)c2cc4cc(N5C6CCC5COC6)ccc4n2C2(c4noc(=O)[nH]4)CC2)CC3)cc(C)c1F [Compound 107, 3-[1-[2-[(4S)-2-(4-fluoro-3,5-dimethyl-phenyl)-3-[1-(4-fluoro-1-methyl-indazol-5-yl)-5-methyl-imidazol-4-yl]-4-methyl-6,7-dihydro-4H-pyrazolo[4,3-c]pyridine-5-carbonyl]-5-(3-oxa-8-azabicyclo[3.2.1]octan-8-yl)indol-1-yl]cyclopropyl]-4H-1,2,4-oxadiazol-5-one]	> 10	–
Cc1cc(-n2nc3c(c2-n2ccn(-c4ccc5c(cnn5C(F)F)c4F)c2=O)[C@@H]2CC[C@H](C3)N2C(=O)c2cc3cc([C@H]4CCOC(C)(C)C4)ccc3n2[C@@]2(c3noc(=O)[nH]3)C[C@@H]2C)cc(C)c1F [Compound 310, 3-((1S,2S)-1-(2-((4S,7R)-3-(3-(1-(difluoromethyl)-4-fluoro-1H-indazol-5-yl)-2-oxo-2,3-dihydro-1H-imidazol-1-yl)-2-(4-fluoro-3,5-dimethylphenyl)-2,4,5,6,7,8-hexahydro-4,7-epiminocyclohepta [c]pyrazole-9-carbonyl)-5-((S)-2,2-dimethyltetrahydro-2H-pyran-4-yl)-1H-indol-1-yl)-2-methylcyclopropyl)-1,2,4-oxadiazol-5(4H)-one]	0.182	–
Cc1cc(-n2nc3c(c2-n2ccn(-c4ccc5c(cnn5C)c4C)c2=O)[C@@H]2COC[C@H](C3)N2C(=O)c2cc3cc([C@H]4CCOC(C)(C)C4)ccc3n2[C@@]2(c3noc(=O)[nH]3)C[C@@H]2C)cc(C)c1F [Compound 228, 3-[(1S,2S)-1-[2-[(1R,8S)-3-[3-(1,4-dimethylindazol-5-yl)-2-oxo-imidazol-1-yl]-4-(4-fluoro-3,5-dimethyl-phenyl)-10-oxa-4,5,12-triazatricyclo[6.3.1.02,6]dodeca-2,5-diene-12-carbonyl]-5-[(4S)-2,2-dimethyltetrahydropyran-4-yl]indol-1-yl]-2-methyl-cyclopropyl]-4H-1,2,4-oxadiazol-5-one]	0.402	–
Cc1cc(-n2nc3c(c2-n2ccn(-c4ccc5c(cnn5C)c4F)c2=O)[C@@H]2CC[C@H](C3)N2S(=O)(=O)c2cc3cc(C4CCOC(C)(C)C4)ccc3n2[C@@]2(c3noc(=O)[nH]3)C[C@@H]2C)cc(C)c1F (stereo partly drawn) [Compound 503, 3-((1S,2S)-1-(5-(2,2-dimethyltetrahydro-2H-pyran-4-yl)-2-(((4S,7R)-3-(3-(4-fluoro-1-methyl-1H-indazol-5-yl)-2-oxo-2,3-dihydro-1H-imidazol-1-yl)-2-(4-fluoro-3,5-dimethylphenyl)-2,4,5,6,7,8-hexahydro-4,7-epiminocyclohepta [c]pyrazol-9-yl)sulfonyl)-1H-indol-1-yl)-2-methylcyclopropyl)-1,2,4-oxadiazol-5 (4H)-one]	0.0978	–
Cc1cc(-n2nc3c(c2-n2ccn(-c4ccc(CS(C)(=O)=O)cc4)c2=O)[C@@H]2CCC[C@H](C3)N2C(=O)c2cc3cc([C@H]4CCOC(C)(C)C4)ccc3n2[C@@]2(c3noc(=O)[nH]3)C[C@@H]2C)cc(C)c1F [Compound 546, 3-[(1S,2S)-1-[5-[(4S)-2,2-dimethyltetrahydropyran-4-yl]-2-[(1S,8R)-4-(4-fluoro-3,5-dimethyl-phenyl)-3-[3-[4-(methylsulfonylmethyl)phenyl]-2-oxo-imidazol-1-yl]-4,5,12-triazatricyclo[6.3.1.02,6]dodeca-2,5-diene-12-carbonyl]indol-1-yl]-2-methyl-cyclopropyl]-4H-1,2,4-oxadiazol-5-one]	≥ 10	–
Cc1cc(-n2nc3c(c2-n2ccn(-c4ccc5c(cnn5C)c4F)c2=O)[C@@H]2CC[C@H](C3)N2C(=O)c2cc3nc(C4CCOC(C)(C)C4)sc3n2C2(c3noc(=O)[nH]3)CC2C)cc(C)c1F (stereo partly drawn) [Compound 202, 3-[1-[2-(2,2-dimethyltetrahydropyran-4-yl)-5-[(1S,8R)-4-(4-fluoro-3,5-dimethyl-phenyl)-3-[3-(4-fluoro-1-methyl-indazol-5-yl)-2-oxo-imidazol-1-yl]-4,5,11-triazatricyclo[6.2.1.02,6]undeca-2,5-diene-11-carbonyl]pyrrolo[3,2-d]thiazol-4-yl]-2-methyl-cyclopropyl]-4H-1,2,4-oxadiazol-5-one]	> 10	–
Cc1cc(-n2nc3c(c2-n2ccn(-c4ccc5c(cnn5C)c4F)c2=O)[C@@H]2CCC[C@H](C3)N2C(=O)c2cc3cc([C@H]4CCOC(C)(C)C4)ccc3n2[C@@]2(c3noc(=O)[nH]3)C[C@@H]2C)cc(C)c1F [Compound 433, 3-((1S,2S)-1-(5-((S)-2,2-dimethyltetrahydro-2H-pyran-4-yl)-2-((4S,8R)-3-(3-(4-fluoro-1-methyl-1H-indazol-5-yl)-2-oxo-2,3-dihydro-1H-imidazol-1-yl)-2-(4-fluoro-3,5-dimethylphenyl)-4,5,6,7,8,9-hexahydro-2H-4,8-epiminocycloocta [c]pyrazole-10-carbonyl)-1H-indol-1-yl)-2-methylcyclopropyl)-1,2,4-oxadiazol-5 (4H)-one]	0.03	EC50 Ratio (Table 1d, potency ratio of stereoisomer pair (less potent / more potent isomer)): >333; EC50 (Table 1d, stereoisomer pairs, read-out: EC50): 0.03 µM; EC50 (text to Table 1d, bridge atoms configured into the plane or away from the reader, read-out: potency (EC50)): < 1 µM
Cc1cc(-n2nc3c(c2-n2ccn(-c4ccc5c(cnn5C)c4F)c2=O)[C@H]2CC[C@@H]([C@@H]3F)N2C(=O)c2cc3cc([C@H]4CCOC(C)(C)C4)ccc3n2[C@@]2(c3noc(=O)[nH]3)C[C@@H]2C)cc(C)c1F [Compound 513, 3-[(1S,2S)-1-[5-[(4S)-2,2-dimethyltetrahydropyran-4-yl]-2-[(1R,7S,8S)-7-fluoro-4-(4-fluoro-3,5-dimethyl-phenyl)-3-[3-(4-fluoro-1-methyl-indazol-5-yl)-2-oxo-imidazol-1-yl]-4,5,11-triazatricyclo[6.2.1.02,6]undeca-2,5-diene-11-carbonyl]indol-1-yl]-2-methyl-cyclopropyl]-4H-1,2,4-oxadiazol-5-one]	≥ 10	potency (text to Table 1d, bridge atoms configured out of the plane or toward the reader): little or no potency
Cc1cc(-n2nc3c(c2-n2ccn(-c4ccc5c(cnn5C)c4F)c2=O)[C@@H]2CC[C@H](C3)N2C(=O)c2cc3cn(C4CCOC(C)(C)C4)c(=O)cc3n2[C@@]2(c3noc(=O)[nH]3)C[C@@H]2C)cc(C)c1F (stereo partly drawn) [Compound 324, 3-[(1S,2S)-1-[5-(2,2-dimethyltetrahydropyran-4-yl)-2-[(1S,8R)-4-(4-fluoro-3,5-dimethyl-phenyl)-3-[3-(4-fluoro-1-methyl-indazol-5-yl)-2-oxo-imidazol-1-yl]-4,5,11-triazatricyclo[6.2.1.02,6]undeca-2,5-diene-11-carbonyl]-6-oxo-pyrrolo[3,2-c]pyridin-1-yl]-2-methyl-cyclopropyl]-4H-1,2,4-oxadiazol-5-one]	0.264	–
Cc1cc(-n2nc3c(c2-n2ccn(-c4ccc5c(cnn5C)c4F)c2=O)[C@@H]2CC[C@H](C3)N2C(=O)c2cc3nc([C@@H]4CCOC(C)(C)C4)sc3n2[C@@]2(c3noc(=O)[nH]3)C[C@@H]2C)cc(C)c1F [Compound 207, 3-[(1S,2S)-1-[2-[(4R)-2,2-dimethyltetrahydropyran-4-yl]-5-[(1S,8R)-4-(4-fluoro-3,5-dimethyl-phenyl)-3-[3-(4-fluoro-1-methyl-indazol-5-yl)-2-oxo-imidazol-1-yl]-4,5,11-triazatricyclo[6.2.1.02,6]undeca-2,5-diene-11-carbonyl]pyrrolo[3,2-d]thiazol-4-yl]-2-methyl-cyclopropyl]-4H-1,2,4-oxadiazol-5-one]	> 10	–
Cc1cc(-n2nc3c(c2-n2ccn(-c4ccc5c(cnn5C)c4F)c2=O)[C@@H]2CC[C@H](C3)N2C(=O)c2cc3cc([C@@H]4CCOC5(CC5)C4)ccc3n2[C@@]2(c3noc(=O)[nH]3)C[C@@H]2C)cc(C)c1F [Compound 215, 3-((1S,2S)-1-(2-((4S,7R)-3-(3-(4-fluoro-1-methyl-1H-indazol-5-yl)-2-oxo-2,3-dihydro-1H-imidazol-1-yl)-2-(4-fluoro-3,5-dimethylphenyl)-2,4,5,6,7,8-hexahydro-4,7-epiminocyclohepta [c]pyrazole-9-carbonyl)-5-((R)-4-oxaspiro[2.5]octan-7-yl)-1H-indol-1-yl)-2-methylcyclopropyl)-1,2,4-oxadiazol-5 (4H)-one]	4.13	–
